# Experimental data taken from publication PMC12214830, “The human RIF1-Long isoform interacts with BRCA1 to promote recombinational fork repair under DNA replication stress” (Nature Communications, 2025).
# Tests used:
# [1] = tested on: tandem BRCT domains of MDC1; assay: fluorescence polarisation, tandem BRCT domains of MDC1; format: binding; conditions: peptide 200 nM, 25 mM HEPES pH 7.5, 200 mM NaCl
# Procedure: (§1) Recombinant BRCT2 domain proteins were expressed as N-terminally HIS-SUMO tagged constructs from a modified pET15b vector in Escherichia coli BL21(DE3) host strain (Novagen). Cell pellets were re-suspended in lysis buffer containing 50 mM HEPES pH 7.5, 200 mM NaCl, 0.5 mM TCEP and supplemented with 10 U DNASE Turbo (ThermoFisher), then disrupted by sonication and the resulting lysate clarified by centrifugation at 40,000 × g for 60 min at 4 °C. […]
# (§2) For Fluorescence Polarisation experiments, a Superdex 75 16/60 size exclusion column (GE Healthcare) was used to purify the His6-SUMO-BRCT2 proteins to homogeneity in 25 mM HEPES pH 7.5, 200 mM NaCl, 1 mM EDTA, 0.25 mM TCEP, 0.02% (v/v) Tween-20.
# (§3) Fluorescein-labelled peptides (Flu-RIF1pS2265 Flu-[…](pS)PKFKSSK, Flu-BRIP1pS990 Flu-[…](pS)PTFNKQT and Flu-H2AXpS140 Flu-[…](pS)QEY, where (pS) is phosphorylated Serine) (Peptide Protein Research Ltd, Bishops Waltham, UK) at a concentration of 200 nM, were incubated at room temperature with increasing concentrations of His6-SUMO-BRCT2 protein in 25 mM HEPES pH 7.5, 200 mM NaCl, 1 mM EDTA, 0.25 mM TCEP, 0.02% (v/v) Tween-20 in a black 96-well polypropylene plate (VWR, Lutterworth, UK). […] Fluorescence polarisation was measured in a CLARIOstar multimode microplate reader (BMG Labtech GmbH, Offenburg, Germany). […]
# [2] = tested on: BRCA1-BRCT domain (His6-SUMO-BRCT2); assay: fluorescence polarisation, tandem BRCT domains of BRCA1; format: binding, human
# Procedure: Recombinant BRCT2 domain proteins were expressed as N-terminally HIS-SUMO tagged constructs from a modified pET15b vector in Escherichia coli BL21(DE3) host strain (Novagen). Cell pellets were re-suspended in lysis buffer containing 50 mM HEPES pH 7.5, 200 mM NaCl, 0.5 mM TCEP and supplemented with 10 U DNASE Turbo (ThermoFisher), then disrupted by sonication and the resulting lysate clarified by centrifugation at 40,000 × g for 60 min at 4 °C. The supernatant was applied to a 5 ml HiTrap TALON crude column (GE Healthcare, Little Chalfont, UK), washed first with buffer containing 50 mM HEPES pH 7.5, 1000 mM NaCl, 0.5 mM TCEP, followed by lysis buffer supplemented with 10 mM imidazole, with any retained protein then eluted by application of the same buffer supplemented with 250 mM imidazole. The eluted protein was concentrated before further purification by size exclusion chromatography.
# as §2
# Fluorescein-labelled peptides (Flu-RIF1pS2265 Flu-[…](pS)PKFKSSK, Flu-BRIP1pS990 Flu-[…](pS)PTFNKQT and Flu-H2AXpS140 Flu-[…](pS)QEY, where (pS) is phosphorylated Serine) (Peptide Protein Research Ltd, Bishops Waltham, UK) at a concentration of 200 nM, were incubated at room temperature with increasing concentrations of His6-SUMO-BRCT2 protein in 25 mM HEPES pH 7.5, 200 mM NaCl, 1 mM EDTA, 0.25 mM TCEP, 0.02% (v/v) Tween-20 in a black 96-well polypropylene plate (VWR, Lutterworth, UK). Incubation with Lambda phosphatase (NEB, Hitchin, UK) supplemented with 1 mM MnCl2 was used to remove the phosphorylation on the peptides. Fluorescence polarisation was measured in a CLARIOstar multimode microplate reader (BMG Labtech GmbH, Offenburg, Germany). Binding curves represent the mean of 4 independent experiments, with error bars of 1 standard deviation. […]
# [3] = tested on: tandem BRCT domains of TOPBP1; assay: fluorescence polarisation, tandem BRCT domains of TOPBP1; format: binding; conditions: peptide 200 nM, 25 mM HEPES pH 7.5, 200 mM NaCl
# Procedure: as §1, §2, §3
# [4] = tested on: tandem BRCT domains of 53BP1; assay: fluorescence polarisation, tandem BRCT domains of 53BP1; format: binding; conditions: peptide 200 nM, 25 mM HEPES pH 7.5, 200 mM NaCl
# Procedure: as §1, §2, §3
substance,measurement,setting,value
"Flu-GYGFLSPGSR(pS)PKFKSSK [RIF1-L phosphoS^2265PKF peptide, fluorescein-labelled RIF1-L-derived phosphopeptide]",binding to tandem BRCT domains of MDC1,[1],did not bind
same,binding to BRCA1-BRCT,"[2]; fluorescein-labelled peptide 200 nM, 25 mM HEPES pH 7.5, 200 mM NaCl, room temperature, mean of 4 independent experiments",bound strongly
same,interaction affinity relative to BRIP1 phospho-peptide,"[2]; peptide 200 nM, 25 mM HEPES pH 7.5, 200 mM NaCl",comparable to that for a phospho-peptide from BRIP1
same,binding to BRCA1-BRCT after λ phosphatase,"[2]; peptide treated with Lambda phosphatase, 1 mM MnCl2",abolished binding
same,binding to tandem BRCT domains of TOPBP1,[3],did not bind
same,binding to tandem BRCT domains of 53BP1,[4],did not bind
